Experimental data reported in ChEMBL document CHEMBL3797059 (Bioorg Med Chem Lett, 2016).
pIC50: −log10 of the molar value. Activity calls are given as the source filed them. The calls are words filed in the database; no cut-off is given here.

Key:
[1] = target: T1, Fibroblast growth factor receptor 2 (Homo sapiens, UniProt P21802); assay: Inhibition of recombinant FGFR2 (unknown origin) at 10 nM using (Glu,Tyr)4:1 as substrate incubated for 60 mins by ELISA
Target sequence in this assay (P21802 22-821 limits assumed): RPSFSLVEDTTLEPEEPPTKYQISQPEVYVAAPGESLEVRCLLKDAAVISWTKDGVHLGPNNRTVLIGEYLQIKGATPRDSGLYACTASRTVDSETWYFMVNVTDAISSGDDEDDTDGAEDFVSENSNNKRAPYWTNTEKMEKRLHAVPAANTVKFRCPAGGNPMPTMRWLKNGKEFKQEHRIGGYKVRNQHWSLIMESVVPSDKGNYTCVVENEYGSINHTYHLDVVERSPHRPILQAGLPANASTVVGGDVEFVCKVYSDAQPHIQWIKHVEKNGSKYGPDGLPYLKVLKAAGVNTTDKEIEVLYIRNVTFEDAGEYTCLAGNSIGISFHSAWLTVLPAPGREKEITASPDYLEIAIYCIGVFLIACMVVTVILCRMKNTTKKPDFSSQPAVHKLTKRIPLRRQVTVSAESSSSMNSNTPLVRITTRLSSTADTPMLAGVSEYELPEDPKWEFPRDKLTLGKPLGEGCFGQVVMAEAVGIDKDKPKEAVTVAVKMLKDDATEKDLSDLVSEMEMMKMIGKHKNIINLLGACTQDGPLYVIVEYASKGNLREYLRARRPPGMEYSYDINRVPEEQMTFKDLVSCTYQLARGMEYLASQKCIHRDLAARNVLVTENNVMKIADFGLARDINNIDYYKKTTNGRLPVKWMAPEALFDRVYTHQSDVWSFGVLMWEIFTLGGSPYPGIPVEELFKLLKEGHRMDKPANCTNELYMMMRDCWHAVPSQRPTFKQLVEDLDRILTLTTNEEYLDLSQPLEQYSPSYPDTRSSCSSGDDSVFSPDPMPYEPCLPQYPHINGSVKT

[2] = target: Vascular endothelial growth factor receptor 2 (Homo sapiens, UniProt P35968); assay: Inhibition of recombinant VEGFR2 (unknown origin) using (Glu,Tyr)4:1 as substrate incubated for 60 mins by ELISA
Vascular endothelial growth factor receptor 2, sequence (P35968 whole entry): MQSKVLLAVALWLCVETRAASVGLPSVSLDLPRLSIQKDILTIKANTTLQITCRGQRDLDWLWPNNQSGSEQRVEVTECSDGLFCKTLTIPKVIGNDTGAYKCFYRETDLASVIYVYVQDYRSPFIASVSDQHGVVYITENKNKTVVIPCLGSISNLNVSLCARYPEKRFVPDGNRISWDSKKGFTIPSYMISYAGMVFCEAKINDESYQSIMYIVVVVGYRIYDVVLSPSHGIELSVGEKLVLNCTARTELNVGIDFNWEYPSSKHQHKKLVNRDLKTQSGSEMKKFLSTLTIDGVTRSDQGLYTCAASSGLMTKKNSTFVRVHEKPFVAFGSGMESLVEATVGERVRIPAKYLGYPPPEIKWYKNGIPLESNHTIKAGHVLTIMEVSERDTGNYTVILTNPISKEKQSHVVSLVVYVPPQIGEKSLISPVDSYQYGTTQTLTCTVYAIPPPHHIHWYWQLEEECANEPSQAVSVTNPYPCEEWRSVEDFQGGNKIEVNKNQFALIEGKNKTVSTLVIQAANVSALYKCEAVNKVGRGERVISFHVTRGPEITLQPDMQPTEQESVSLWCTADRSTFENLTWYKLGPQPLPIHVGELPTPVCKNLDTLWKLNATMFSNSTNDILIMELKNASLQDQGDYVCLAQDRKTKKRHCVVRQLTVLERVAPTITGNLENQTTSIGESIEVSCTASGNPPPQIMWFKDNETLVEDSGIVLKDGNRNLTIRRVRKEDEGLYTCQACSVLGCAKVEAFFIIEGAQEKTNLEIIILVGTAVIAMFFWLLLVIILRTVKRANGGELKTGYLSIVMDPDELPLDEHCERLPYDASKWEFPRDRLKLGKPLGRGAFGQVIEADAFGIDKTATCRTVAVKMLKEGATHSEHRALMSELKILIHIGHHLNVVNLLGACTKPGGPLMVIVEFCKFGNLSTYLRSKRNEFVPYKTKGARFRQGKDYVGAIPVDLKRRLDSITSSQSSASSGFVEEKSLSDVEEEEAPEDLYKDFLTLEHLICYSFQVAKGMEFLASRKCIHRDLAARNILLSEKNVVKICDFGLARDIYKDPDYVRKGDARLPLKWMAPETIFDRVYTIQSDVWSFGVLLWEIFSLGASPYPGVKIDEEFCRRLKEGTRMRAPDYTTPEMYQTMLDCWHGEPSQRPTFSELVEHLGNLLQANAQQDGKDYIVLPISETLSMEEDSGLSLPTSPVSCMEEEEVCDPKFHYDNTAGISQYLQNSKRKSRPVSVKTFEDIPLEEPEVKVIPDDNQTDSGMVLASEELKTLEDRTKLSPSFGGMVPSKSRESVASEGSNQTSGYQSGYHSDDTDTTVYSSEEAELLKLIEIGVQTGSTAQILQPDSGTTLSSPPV

[3] = target: T2, Fibroblast growth factor receptor 1 (Homo sapiens, UniProt P11362); assay: Inhibition of recombinant FGFR1 (unknown origin) using (Glu,Tyr)4:1 as substrate incubated for 60 mins by ELISA
Target sequence in this assay (P11362 whole entry): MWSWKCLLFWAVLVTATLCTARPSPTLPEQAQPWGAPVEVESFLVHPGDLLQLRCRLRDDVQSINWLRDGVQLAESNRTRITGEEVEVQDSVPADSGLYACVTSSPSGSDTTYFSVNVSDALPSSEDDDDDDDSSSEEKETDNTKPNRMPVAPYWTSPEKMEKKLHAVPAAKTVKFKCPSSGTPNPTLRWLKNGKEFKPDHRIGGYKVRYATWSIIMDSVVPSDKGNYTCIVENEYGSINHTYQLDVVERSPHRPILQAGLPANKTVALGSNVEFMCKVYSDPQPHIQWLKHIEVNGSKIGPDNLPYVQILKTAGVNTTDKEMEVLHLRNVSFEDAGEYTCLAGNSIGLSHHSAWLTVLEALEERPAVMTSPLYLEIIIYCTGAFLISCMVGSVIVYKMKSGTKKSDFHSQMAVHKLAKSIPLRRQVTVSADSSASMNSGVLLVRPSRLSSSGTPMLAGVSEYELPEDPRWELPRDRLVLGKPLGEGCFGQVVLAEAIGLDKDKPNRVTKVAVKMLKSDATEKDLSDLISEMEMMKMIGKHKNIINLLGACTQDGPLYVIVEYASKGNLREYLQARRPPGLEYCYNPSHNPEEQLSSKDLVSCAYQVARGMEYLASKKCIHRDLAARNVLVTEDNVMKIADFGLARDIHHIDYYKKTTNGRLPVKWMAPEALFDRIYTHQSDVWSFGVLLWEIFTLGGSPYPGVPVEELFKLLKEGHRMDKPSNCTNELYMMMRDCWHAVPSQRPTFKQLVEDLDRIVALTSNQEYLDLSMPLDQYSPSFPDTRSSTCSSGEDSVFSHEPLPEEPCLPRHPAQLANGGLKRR

[4] = target: Fibroblast growth factor receptor 3 (Homo sapiens, UniProt P22607); assay: Inhibition of recombinant FGFR3 (unknown origin) using (Glu,Tyr)4:1 as substrate incubated for 60 mins by ELISA
[5] = target: Fibroblast growth factor receptor 4 (Homo sapiens, UniProt P22455); assay: Inhibition of recombinant FGFR4 (unknown origin) using (Glu,Tyr)4:1 as substrate incubated for 60 mins by ELISA
[6] = target: T2, Fibroblast growth factor receptor 1; assay: Inhibition of FGFR1 phosphorylation in human KG1 cells incubated for 2 hrs by Western blot analysis; assay type: cell-based; details: KG-1
Target sequence in this assay (P11362 22-822 limits assumed): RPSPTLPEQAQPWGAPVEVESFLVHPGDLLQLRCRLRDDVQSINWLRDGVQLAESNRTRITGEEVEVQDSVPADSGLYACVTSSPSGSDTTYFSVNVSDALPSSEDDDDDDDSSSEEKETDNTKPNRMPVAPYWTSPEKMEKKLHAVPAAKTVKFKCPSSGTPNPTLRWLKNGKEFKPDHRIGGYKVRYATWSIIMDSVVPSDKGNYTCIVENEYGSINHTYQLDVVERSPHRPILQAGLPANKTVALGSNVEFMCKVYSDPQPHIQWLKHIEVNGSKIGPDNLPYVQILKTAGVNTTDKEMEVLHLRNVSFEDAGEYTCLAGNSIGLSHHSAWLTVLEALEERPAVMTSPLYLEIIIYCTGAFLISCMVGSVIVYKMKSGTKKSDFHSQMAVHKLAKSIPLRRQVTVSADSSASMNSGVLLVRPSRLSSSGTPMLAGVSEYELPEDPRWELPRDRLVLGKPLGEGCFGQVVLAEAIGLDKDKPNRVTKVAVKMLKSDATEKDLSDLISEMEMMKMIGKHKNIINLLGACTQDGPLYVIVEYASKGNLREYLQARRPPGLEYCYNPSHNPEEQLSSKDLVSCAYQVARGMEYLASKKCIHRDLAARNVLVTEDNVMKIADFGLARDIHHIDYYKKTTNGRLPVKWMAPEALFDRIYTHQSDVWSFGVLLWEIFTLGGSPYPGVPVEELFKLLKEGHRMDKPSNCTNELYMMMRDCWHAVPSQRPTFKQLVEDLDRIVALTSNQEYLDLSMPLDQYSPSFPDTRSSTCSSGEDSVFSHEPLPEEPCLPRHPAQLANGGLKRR

[7] = target: T2, Fibroblast growth factor receptor 1; assay: Inhibition of FGFR1 phosphorylation in human KG1 cells assessed as reduction of phospho-PLCgamma level at 0.4 to 10 nM incubated for 2 hrs by Western blot analysis; assay type: cell-based; details: KG-1
Target sequence in this assay (P11362 22-822 limits assumed): as above

[8] = target: T2, Fibroblast growth factor receptor 1; assay: Inhibition of FGFR1 phosphorylation in human KG1 cells assessed as reduction of phospho-ERK level at 0.4 to 10 nM incubated for 2 hrs by Western blot analysis; assay type: cell-based; details: KG-1
Target sequence in this assay (P11362 22-822 limits assumed): as above

[9] = target: T1, Fibroblast growth factor receptor 2; assay: Inhibition of FGFR2 (unknown origin) at 1 nM using (Glu,Tyr)4:1 as substrate incubated for 60 mins by ELISA
Target sequence in this assay (P21802 22-821 limits assumed): as the sequence (P21802 22-821 limits assumed) above

[10] = target: T1, Fibroblast growth factor receptor 2; assay: Inhibition of recombinant FGFR2 (unknown origin) using (Glu,Tyr)4:1 as substrate incubated for 60 mins by ELISA
Target sequence in this assay (P21802 whole entry): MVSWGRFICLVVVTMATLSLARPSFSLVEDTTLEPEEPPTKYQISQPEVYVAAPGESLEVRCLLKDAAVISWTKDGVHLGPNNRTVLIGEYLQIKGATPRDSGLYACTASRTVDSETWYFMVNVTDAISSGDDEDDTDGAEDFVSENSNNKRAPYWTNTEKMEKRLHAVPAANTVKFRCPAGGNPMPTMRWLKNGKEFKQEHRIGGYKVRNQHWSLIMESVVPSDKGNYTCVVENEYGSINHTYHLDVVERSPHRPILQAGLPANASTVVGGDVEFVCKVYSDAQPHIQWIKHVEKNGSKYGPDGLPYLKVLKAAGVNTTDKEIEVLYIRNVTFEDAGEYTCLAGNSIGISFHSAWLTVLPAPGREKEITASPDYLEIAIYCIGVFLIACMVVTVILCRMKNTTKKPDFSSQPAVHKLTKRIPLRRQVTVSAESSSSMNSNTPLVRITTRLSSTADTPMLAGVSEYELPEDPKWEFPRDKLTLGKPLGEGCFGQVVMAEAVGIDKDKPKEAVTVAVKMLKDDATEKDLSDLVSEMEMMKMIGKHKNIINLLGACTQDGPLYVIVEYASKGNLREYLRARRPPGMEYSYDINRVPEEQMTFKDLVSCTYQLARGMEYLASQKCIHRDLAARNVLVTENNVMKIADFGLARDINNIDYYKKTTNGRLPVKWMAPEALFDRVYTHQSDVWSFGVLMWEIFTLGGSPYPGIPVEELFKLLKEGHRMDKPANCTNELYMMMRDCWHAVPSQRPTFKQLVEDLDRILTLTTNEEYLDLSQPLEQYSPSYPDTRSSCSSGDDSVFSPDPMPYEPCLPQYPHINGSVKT

Structure (SMILES): COc1cc(CCc2cc(Nc3ncnc4cc(N5CCN(S(=O)(=O)c6ccc(C)cc6)CC5)ccc34)n[nH]2)cc(OC)c1
- inhibition [1]: 41.8%

Structure (SMILES): COc1cc(CCc2cc(Nc3ncnc4cc(N5CCN6CCCCC6C5)ccc34)n[nH]2)cc(OC)c1 (stereo unspecified)
- pIC50 [2]: 7.67
- pIC50 [3]: 9.00
- pIC50 [4]: 8.30
- pIC50 [5]: 7.28
- inhibition [6]: Dose-dependent effect
- inhibition [7]: Active
- inhibition [8]: Active

Structure (SMILES): CCN1CCN(c2ccc3c(Nc4cc(CCc5c(Cl)c(OC)cc(OC)c5Cl)[nH]n4)ncnc3c2)CC1
- pIC50 [2]: 7.76

Structure (SMILES): CCc1nc(Nc2cc(CCc3cc(OC)cc(OC)c3)[nH]n2)c2ccc(N3CCN(CC)CC3)cc2n1
- pIC50 [2]: 7.45

Structure (SMILES): COc1cc(CCc2cc(Nc3ncnc4cc(OC)ccc34)n[nH]2)cc(OC)c1
- inhibition [1]: 73.3%
- inhibition [9]: 16.9%

Structure (SMILES): COCCOc1ccc2c(Nc3cc(CCc4cc(OC)cc(OC)c4)[nH]n3)ncnc2c1
- pIC50 [2]: < 7.00

Structure (SMILES): COc1cc(CCc2cc(Nc3ncnc4cc(N5CCCCC5)ccc34)n[nH]2)cc(OC)c1
- inhibition [9]: 87.4%

Structure (SMILES): CCN1CCN(c2ccc3c(Nc4cc(CCc5cc(OC)cc(OC)c5)[nH]n4)nc(NCc4cc(C)no4)nc3c2)CC1
- pIC50 [10]: > 8.00

Structure (SMILES): COc1cc(CCc2cc(Nc3ncnc4cc(NCCN5CCOCC5)ccc34)n[nH]2)cc(OC)c1
- pIC50 [2]: < 7.00
